# Test results published in patent US20060234909A1, “Compositions and methods for increasing drug efficiency” (priority 2003, published 2006).
# Like-named read-outs stand apart in the source and are kept apart here. Ends that are not written are not given here.
# Key:
# Akt = Akt (Homo sapiens, UniProt P31749); conditions: Akt peptide substrates, Alessi et al. 1996; cited from earlier work
# [1] = Serum stability in RPMI1640 medium containing 10% fetal bovine serum; type: in vitro ADME; conditions: for remaining at 4 h, 10 μM / remaining at 8 h, 10 μM / remaining at 24 h, 10 μM / remaining at 72 h, 10 μM / half-life at 10 μM: bovine; for remaining at 4 h, 10 μM: read-out: Relative Percent Remaining at 4 hr; for remaining at 8 h, 10 μM: read-out: Relative Percent Remaining at 8 hr; for remaining at 24 h, 10 μM: read-out: Relative Percent Remaining at 24 hr; for remaining at 72 h, 10 μM: read-out: Relative Percent Remaining at 72 hr; for half-life at 10 μM: read-out: T½ (converted)
# Procedure: The stability of conjugates was measured in RPMI1640 cell culture medium containing 10% fetal bovine serum. The serum-containing medium was pre-warmed at 37° C. for 3 min prior to addition of test articles. Test articles, prepared in DMSO as 5 mM stocks, were added to the cell culture media to a final concentration of 10 μM. Aliquots ([…]) were withdrawn in triplicate at 0, 4, 8, 24 and 72 hours and combined with the same volume of ice-cold acetonitrile to terminate the reaction. The mixture was centrifuged at 2,000×g for 10 minutes. One part of the supernatant was mixed with four parts of deionized water to bring down the percentage of organic solvent. The diluted samples were then assayed by LC/MS for the test article. The natural log of the percent remaining was plotted versus time. A linear fit was used to determine the rate constant. The fit was truncated after the percent of remaining test article was less than 10%. The elimination half-lives associated with the disappearance of test articles were determined to compare their relative stability. The assays were carried out by Absorption Systems (Exton, Pa.).
# [2] = test system: Normal human foreskin fibroblasts (HFF); assay: cells; conditions: Fibroblast
# in vitro = conditions: human
# MCF-7 cells [3] = assay: cells; conditions: Homo sapiens
# HT-29 cells [4] = assay: cells; conditions: Homo sapiens
# tubulin = assay: Fluorescence-based tubulin polymerization assay (MPA; enhancement for paclitaxel, inhibition for vinblastine); type: biochemical
# Outline: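 Tubulin polymerisation was followed by fluorescence (ex 360/em 405 nm) with 1 mg/ml BSA in all assays. For paclitaxel conjugates, glycerol was omitted. Parent drugs and conjugates were tested at 0.75, 1.5, 3 and 10 micromolar final, and values come from the linear range of the dose responses.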
# MCF-7 cells [5] = conditions: read-out: MCF7 (EC50 Ave) SA; MCF7, SA (soft agar)
# [6] = test system: HT-29 colorectal carcinoma; assay: Cytotoxicity assay (monolayer), HT-29; type: cell-based; conditions: HT29, ML (monolayer), read-out: HT29 (EC50 Ave) ML;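 further: monolayer cultures tested in triplicate, compound exposure for three days against DMSO vehicle controls, EC50 fitted from dose-response curves and averaged across all tests and lots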
# Human Src = target: T1, Human Src (Homo sapiens, UniProt P12931); assay: Src kinase assay (PKLight ATP utilization, substrate phosphorylation as % of parent peptide); type: biochemical
# T1 construct: purchased Upstate (Charlottesville, Va.) 14-326
# T1 sequence (P12931 whole entry): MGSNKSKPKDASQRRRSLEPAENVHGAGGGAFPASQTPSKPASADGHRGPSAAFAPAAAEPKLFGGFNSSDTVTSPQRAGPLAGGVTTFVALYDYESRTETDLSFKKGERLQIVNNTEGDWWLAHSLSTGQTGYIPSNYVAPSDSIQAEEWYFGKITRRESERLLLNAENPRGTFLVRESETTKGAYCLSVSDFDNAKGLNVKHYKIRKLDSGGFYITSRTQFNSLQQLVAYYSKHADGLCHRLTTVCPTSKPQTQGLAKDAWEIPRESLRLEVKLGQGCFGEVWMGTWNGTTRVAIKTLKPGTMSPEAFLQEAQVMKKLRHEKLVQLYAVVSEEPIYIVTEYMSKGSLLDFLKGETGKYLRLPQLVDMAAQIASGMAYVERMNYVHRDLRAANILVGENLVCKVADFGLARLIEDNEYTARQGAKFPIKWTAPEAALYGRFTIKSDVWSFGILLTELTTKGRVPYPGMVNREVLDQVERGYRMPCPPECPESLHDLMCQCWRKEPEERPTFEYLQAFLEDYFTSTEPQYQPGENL
# Outline: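 Recombinant human Src or Akt phosphorylated peptide or drug–peptide conjugate substrates (25, 50, 100 μM) at 30° C for 2–5 hours, in Tris-HCl pH 7.5 buffer with MgCl2 and ATP. ATP use was read by luciferase luminescence against no-substrate and no-ATP controls. Phosphorylation was taken from the linear range and expressed as % of the parent peptide.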
# HUVEC = assay: Cytotoxicity assay (monolayer), HUVEC; type: cell-based; conditions: ML (monolayer), read-out: HUVEC (EC50 Ave) ML
# HT-29 cells [7] = conditions: read-out: HT29 (EC50 Ave) SA; HT29, SA (soft agar)
# MCF-7 breast carcinoma = assay: Cytotoxicity assay (monolayer), MCF-7; type: cell-based; conditions: MCF7, ML (monolayer), read-out: MCF7 (EC50 Ave) ML;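 further: cells treated 72 h with 6-8 compound doses versus DMSO vehicle controls, EC50 fitted by 4-parameter dose-response curves, averaged across all tests and lots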
# [8] = test system: tumor cells vs normal cells; assay: Cytotoxic selectivity index (normal cells in monolayer vs tumor cells in soft agar); conditions: HFF/HT29
# [9] = test system: Normal human foreskin fibroblasts (HFF); conditions: read-out: HFF (EC50 Ave) ML; HFF, ML (monolayer)
# Met kinase = Met kinase (Homo sapiens, UniProt P08581); conditions: Hays and Watowich 2003; read-out: Km as substrate for Met kinase; cited from earlier work
# Met kinase, sequence (P08581 25-1390): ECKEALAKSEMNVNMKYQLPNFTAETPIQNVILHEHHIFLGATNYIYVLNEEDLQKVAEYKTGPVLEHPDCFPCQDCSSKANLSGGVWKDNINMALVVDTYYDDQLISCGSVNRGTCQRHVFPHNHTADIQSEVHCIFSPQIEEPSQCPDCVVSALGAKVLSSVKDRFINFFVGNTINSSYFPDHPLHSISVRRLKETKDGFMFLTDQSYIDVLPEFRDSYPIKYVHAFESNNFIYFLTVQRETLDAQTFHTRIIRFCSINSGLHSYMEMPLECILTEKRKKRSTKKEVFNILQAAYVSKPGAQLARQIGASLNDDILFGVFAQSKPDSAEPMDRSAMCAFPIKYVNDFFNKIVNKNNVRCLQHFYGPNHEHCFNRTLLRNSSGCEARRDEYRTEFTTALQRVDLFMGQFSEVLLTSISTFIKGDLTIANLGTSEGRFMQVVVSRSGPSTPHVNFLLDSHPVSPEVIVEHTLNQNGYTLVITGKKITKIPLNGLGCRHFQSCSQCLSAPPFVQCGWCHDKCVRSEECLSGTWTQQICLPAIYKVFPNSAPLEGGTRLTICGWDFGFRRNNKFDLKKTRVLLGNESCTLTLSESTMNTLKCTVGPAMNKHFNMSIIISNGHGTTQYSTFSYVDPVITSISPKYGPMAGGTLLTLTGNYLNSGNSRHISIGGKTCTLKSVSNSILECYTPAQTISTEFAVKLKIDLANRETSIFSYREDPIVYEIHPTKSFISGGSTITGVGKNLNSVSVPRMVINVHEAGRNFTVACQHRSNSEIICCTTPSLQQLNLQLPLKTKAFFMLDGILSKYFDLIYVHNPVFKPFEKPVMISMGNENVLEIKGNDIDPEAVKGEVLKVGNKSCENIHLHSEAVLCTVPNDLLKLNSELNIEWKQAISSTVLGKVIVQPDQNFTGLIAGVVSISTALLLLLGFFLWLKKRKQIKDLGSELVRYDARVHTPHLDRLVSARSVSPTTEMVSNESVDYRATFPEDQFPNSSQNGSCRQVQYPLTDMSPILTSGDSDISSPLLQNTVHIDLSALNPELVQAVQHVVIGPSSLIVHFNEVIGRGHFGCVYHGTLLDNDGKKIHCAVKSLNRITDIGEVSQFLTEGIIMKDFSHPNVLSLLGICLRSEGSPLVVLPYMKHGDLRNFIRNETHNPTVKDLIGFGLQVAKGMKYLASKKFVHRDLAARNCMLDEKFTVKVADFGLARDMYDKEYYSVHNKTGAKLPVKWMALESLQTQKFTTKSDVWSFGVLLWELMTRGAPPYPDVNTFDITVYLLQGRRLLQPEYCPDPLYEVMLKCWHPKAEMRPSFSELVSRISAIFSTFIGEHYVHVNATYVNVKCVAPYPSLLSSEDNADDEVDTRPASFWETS
# Tie-2 = Tie-2 (Homo sapiens, UniProt Q02763); conditions: Deng et al. 2001; read-out: Km as substrate for Tie-2; cited from earlier work
# Tie-2, sequence (Q02763 23-1124, species assumed): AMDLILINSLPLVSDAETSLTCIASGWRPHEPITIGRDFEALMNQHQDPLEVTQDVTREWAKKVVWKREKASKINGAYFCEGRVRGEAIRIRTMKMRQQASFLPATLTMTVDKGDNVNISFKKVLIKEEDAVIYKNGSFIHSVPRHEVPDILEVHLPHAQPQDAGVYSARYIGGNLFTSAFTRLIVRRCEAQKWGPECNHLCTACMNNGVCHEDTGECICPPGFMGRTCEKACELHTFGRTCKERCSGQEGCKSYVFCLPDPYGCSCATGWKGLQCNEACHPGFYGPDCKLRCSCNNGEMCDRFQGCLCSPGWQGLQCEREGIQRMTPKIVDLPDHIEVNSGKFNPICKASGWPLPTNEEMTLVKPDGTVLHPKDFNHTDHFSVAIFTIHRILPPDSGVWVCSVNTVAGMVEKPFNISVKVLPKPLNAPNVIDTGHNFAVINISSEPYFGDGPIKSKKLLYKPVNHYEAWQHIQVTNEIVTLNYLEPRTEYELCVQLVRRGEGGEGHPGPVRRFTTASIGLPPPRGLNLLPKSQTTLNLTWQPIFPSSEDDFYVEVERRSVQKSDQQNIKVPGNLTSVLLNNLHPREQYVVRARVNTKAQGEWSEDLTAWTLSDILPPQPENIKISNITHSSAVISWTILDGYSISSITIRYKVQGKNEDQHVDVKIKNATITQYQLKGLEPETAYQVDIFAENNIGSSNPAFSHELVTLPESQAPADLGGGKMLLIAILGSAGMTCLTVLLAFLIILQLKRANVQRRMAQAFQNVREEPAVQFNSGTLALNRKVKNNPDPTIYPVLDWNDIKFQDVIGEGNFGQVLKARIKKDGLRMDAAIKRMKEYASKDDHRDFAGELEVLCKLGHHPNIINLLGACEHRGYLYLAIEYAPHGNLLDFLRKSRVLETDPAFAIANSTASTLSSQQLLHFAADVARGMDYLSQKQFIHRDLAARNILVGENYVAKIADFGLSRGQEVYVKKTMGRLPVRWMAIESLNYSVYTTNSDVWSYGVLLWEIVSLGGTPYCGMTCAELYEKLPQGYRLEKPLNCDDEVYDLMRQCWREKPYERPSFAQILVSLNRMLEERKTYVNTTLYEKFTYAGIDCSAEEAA
# [10] = MCF7, read-out: MCF7 (EC50 Ave) SA
# [11] = HT-29, read-out: HT29 (EC50 Ave) SA
# Akt, sequence (P31749 whole entry): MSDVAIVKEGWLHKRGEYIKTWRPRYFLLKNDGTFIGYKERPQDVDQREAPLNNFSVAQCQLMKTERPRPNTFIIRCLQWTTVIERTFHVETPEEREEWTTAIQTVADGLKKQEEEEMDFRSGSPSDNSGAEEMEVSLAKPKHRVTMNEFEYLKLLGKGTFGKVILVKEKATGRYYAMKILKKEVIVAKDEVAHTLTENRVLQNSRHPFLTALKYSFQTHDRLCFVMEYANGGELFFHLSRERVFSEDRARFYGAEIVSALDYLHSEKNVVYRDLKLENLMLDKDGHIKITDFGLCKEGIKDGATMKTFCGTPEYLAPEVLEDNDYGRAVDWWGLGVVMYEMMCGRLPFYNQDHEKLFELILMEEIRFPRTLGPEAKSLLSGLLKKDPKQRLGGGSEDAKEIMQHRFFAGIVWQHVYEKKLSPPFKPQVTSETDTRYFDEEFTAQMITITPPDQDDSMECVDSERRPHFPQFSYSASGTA
molecule,measurement,setting,value
RPRTSTF [peptide substrate for Akt from the literature],specificity with respect to related MAP kinase and S6 kinase,Akt,exhibit specificity
"CC[C@]1(O)C[C@@H]2CN(CCc3c([nH]c4ccccc34)[C@@](C(=O)OC)(c3cc4c(cc3OC)N(C)[C@H]3[C@@](O)(C(=O)OC)[C@H](OC(C)=O)[C@]5(CC)C=CCN6CC[C@]43[C@@H]65)C2)C1 [Vinblastine, reference compound]",Relative Percent Remaining at 0 hr,[1],100%
same,"remaining at 4 h, 10 μM",[1],95%
same,"remaining at 8 h, 10 μM",[1],95%
same,"remaining at 24 h, 10 μM",[1],87%
same,"remaining at 72 h, 10 μM",[1],67%
same,half-life at 10 μM,[1],> 72 h
same,EC50,"[2]; 72 h, read-out: HFFMonolayer EC50",1.5 ± 0.5 nM
same,selectivity ratio,in vitro,0.2
same,EC50,"MCF-7 cells [3]; MCF7, read-out: MCF-7 Soft Agar EC50",7 ± 5 nM
same,EC50,"HT-29 cells [4]; HT-29, read-out: HT-29 Soft Agar EC50",7 ± 7 nM
CC[C@H](C)[C@H](NC(=O)[C@H](Cc1ccc(O)cc1)NC(=O)[C@H](CCC(=O)O)NC(C)=O)C(=O)N[C@@H](Cc1ccc(O)cc1)C(=O)NCC(=O)N[C@@H](CO)C(=O)N[C@@H](Cc1ccccc1)C(=O)N[C@@H](CCCCN)C(=O)NCCCOCCOCCOCCCNC(=O)O[C@H]1C(=O)[C@@]2(C)[C@H]([C@H](OC(=O)c3ccccc3)[C@]3(O)C[C@H](OC(=O)[C@H](O)[C@@H](NC(=O)c4ccccc4)c4ccccc4)C(C)=C1C3(C)C)[C@]1(OC(C)=O)CO[C@@H]1C[C@@H]2O,Relative Percent Remaining at 0 hr,[1],100%
same,"remaining at 4 h, 10 μM",[1],95%
same,"remaining at 8 h, 10 μM",[1],99%
same,"remaining at 24 h, 10 μM",[1],69%
same,"remaining at 72 h, 10 μM",[1],22%
same,half-life at 10 μM,[1],32 h
same,Ave. MPA Act.,tubulin,B (B=50-80)
same,selectivity ratio,in vitro,24.1
same,EC50,MCF-7 cells [5],> 100 nM
same,EC50,[6],> 100 nM
same,Average src kinase activity,Human Src,C (C>40)
same,EC50,HUVEC,> 100 nM
same,EC50,HT-29 cells [7],> 100 nM
same,EC50,MCF-7 breast carcinoma,> 100 nM
same,Cytotoxic Selectivity Index HFF/HT29,[8],20.5
same,EC50,[9],> 100 nM
CC[C@]1(O)C[C@@H]2CN(CCc3c([nH]c4ccccc34)[C@@](C(=O)OC)(c3cc4c(cc3OC)N(C)[C@H]3[C@@](O)(C(=O)OC)[C@H](OC(C)=O)[C@]5(CC)C=CCN6CC[C@]43[C@@H]65)C2)C1 [Vinblastine (VBL)],Ave. MPA Act.,tubulin,C (C>80)
same,EC50,[2]; read-out: HFF (EC50 Ave) ML,< 20 nM
same,EC50,MCF-7 cells [3]; [10],< 20 nM
same,EC50,"[6]; Homo sapiens, HT-29",< 20 nM
same,EC50,HT-29 cells [4]; [11],< 20 nM
same,EC50,HUVEC; Homo sapiens,< 20 nM
same,EC50,MCF-7 breast carcinoma; Homo sapiens,< 20 nM
RPRAATF [peptide substrate for Akt from the literature],specificity with respect to related MAP kinase and S6 kinase,Akt,exhibit specificity
DSDVHVNATYVNVKCVAP [18 amino acid peptide substrate for Met kinase],Km,Met kinase,67 µM
CC(=O)O[C@H]1C(=O)[C@@]2(C)[C@H]([C@H](OC(=O)c3ccccc3)[C@]3(O)C[C@H](OC(=O)[C@H](O)[C@@H](NC(=O)c4ccccc4)c4ccccc4)C(C)=C1C3(C)C)[C@]1(OC(C)=O)CO[C@@H]1C[C@@H]2O [Paclitaxel (PXL)],Ave. MPA Act.,tubulin,C (C>80)
same,EC50,[2]; read-out: HFF (EC50 Ave) ML,< 20 nM
same,EC50,MCF-7 cells [3]; [10],< 20 nM
same,EC50,"[6]; Homo sapiens, HT-29",< 20 nM
same,EC50,HT-29 cells [4]; [11],< 20 nM
same,EC50,HUVEC; Homo sapiens,< 20 nM
same,EC50,MCF-7 breast carcinoma; Homo sapiens,< 20 nM
RLVAYEGWV [nine amino acid peptide substrate for Tie-2],Km,Tie-2,119 µM
